Reference: patent publication US12221432B2, “Estrogen receptor antagonist” (CHIA TAI TIANQING PHARMACEUTICAL GROUP CO., LTD., priority 2018, dated 2025)

tested on: MCF-7 cells; assay: MCF-7 cell proliferation inhibition; type: cell-based; conditions: 6 days incubation, CellTiter-Glo; read-out: IC50 for MCF-7 cell proliferation inhibition
Procedure: EMEM medium was purchased from Wisent, and fetal bovine serum was purchased from Biosera. Promega CellTiter-Glo reagent. MCF-7 cells were purchased from the Cell Bank of Type Culture Collection Committee of the Chinese Academy of Sciences. Nivo5 multi-marker analyzer (PerkinElmer).
MCF-7 cells were seeded in a white 384-well plate at 600 cells/[…] suspension/well. The plate was incubated in a CO2 incubator overnight.
On the day of treatment, a day 0 plate coated under the same conditions the day before was taken, centrifuged to remove the medium, added with 25 microliters of Promega CellTiter-Glo reagent to each well, and incubated at room temperature for 10 minutes to stabilize the luminescence signal. Measures were read by PerkinElmer Nivo multi-marker analyzer as an initial value for 0% inhibition.
The test compounds were serially 5-fold diluted to the 10th concentration with a multichannel pipette, i.e., from 2 millimoles to […], and the experiments were set up in duplicate. 47.5 microliters of medium was added to the intermediate plate, 2.5 microliters of serially diluted compounds were transferred to corresponding wells of the intermediate plate, and after mixing, 5 microliters of the mixture per well was transferred to the cell plate. The plate was incubated in a CO2 incubator for 6 days.
After 6 days of co-incubation with the compounds, the plate was centrifuged to remove the medium, added with 25 microliters of Promega CellTiter-Glo reagent to each well, and incubated at room temperature for 10 minutes to stabilize the luminescence signal. Measures were read by PerkinElmer Nivo multi-marker analyzer.
The original data was converted into inhibition rate by the formula: % inhibition=((RFUCmpd−AVER(RFUNeg.Ctrl))/((AVER(RFUDay0)−AVER(RFUNeg.Ctrl))×100%. Curve fitting was conducted and IC50 was calculated.

Q: `CN(C)C(=O)/C=C/CNCCOc1ccc(/C(=C(/CC(F)(F)F)c2c(F)cncc2F)c2[nH]c3ccccc3c2Cl)cn1` [Compound 8] was tested. Which IC50 did it give?
A: 2.72 nM

Q: Which IC50 does the source give for `CC/C(=C(/c1ccc(OCCN(C/C=C/C(=O)N(C)C)C(=O)OC(C)(C)C)nc1)c1[nH]c2ncccc2c1Cl)c1ccccc1` [Compound 5] here?
A: 4.74 nM

same assay, conditions: Homo sapiens, MCF7, 144 h, read-out: IC50 for MCF-7 cell proliferation inhibition

Q: Which IC50 does the source give for `CC/C(=C(/c1ccc(OCCNC/C=C/C(=O)N2CCC2)nc1)c1[nH]c2ccccc2c1Cl)c1ccccc1` [Compound 26] here?
A: 3.82 nM

same assay, conditions: Homo sapiens, MCF7, 144 h; 6 days incubation, CellTiter-Glo; read-out: IC50 for MCF-7 cell proliferation inhibition

Q: `CN(C)C(=O)/C=C/CNCCOc1ccc(/C(=C(/CC(F)(F)F)c2ccc(F)cc2Cl)c2[nH]c3ccccc3c2Cl)cn1` [Compound 9] was tested. Which IC50 did it give?
A: 2.36 nM

Q: How did the IC50 turn out when `CC/C(=C(/c1ccc(OCCNC/C=C/C(=O)N(C)C)nc1)c1[nH]c2ccccc2c1Cl)c1ccccc1` [Compound 3] was run?
A: 0.87 nM

Q: Which IC50 does the source give for `CC/C(=C(/c1ccc(OCCNC/C=C/C(=O)N(C)C)nc1)c1[nH]c2ccccc2c1Cl)c1ccc(F)cc1F` [Compound 17] here?
A: 2.67 nM

Q: With `CC/C(=C(/c1ccc(OCCNC/C=C/C(=O)N(C)C)nc1)c1[nH]c2ccccc2c1Cl)c1ccccc1Cl` [Compound 14] as the compound, how does the IC50 read?
A: 1 nM

Q: With `CN(C)C(=O)/C=C/CNCCOc1ccc(/C(=C(/CC(F)(F)F)c2ccccc2C#N)c2[nH]c3ccccc3c2Cl)cn1` [Compound 10] as the compound, how does the IC50 read?
A: 2.11 nM

Q: For `CC/C(=C(/c1ccc(OCCNC/C=C/C(=O)N(C)C)nc1)c1[nH]c2ccccc2c1C)c1cccc(OC)c1` [Compound 20], which IC50 is on record?
A: 1.46 nM

Q: With `CC/C(=C(/c1ccc(OCCNC/C=C/C(=O)N(C)C)nc1F)c1[nH]c2ccccc2c1Cl)c1cccc(OC)c1` [Compound 19] as the compound, how does the IC50 read?
A: 2.75 nM

Q: With `CC/C(=C(/c1ccc(OCCNC/C=C/C(=O)N(C)C)nc1)c1[nH]c2ccccc2c1Cl)c1cccc(OC)c1` [Compound 4] as the compound, how does the IC50 read?
A: 0.61 nM

Q: For `CC/C(=C(/c1ccc(OCCNC/C=C/C(=O)N(C)C)nc1)c1[nH]c2ccccc2c1Cl)c1csc(C)c1` [Compound 16], which IC50 is on record?
A: 1.11 nM

Q: How did the IC50 turn out when `CC/C(=C(/c1ccc(OCCNC/C=C/C(=O)N(C)C)nc1)c1[nH]c2ccccc2c1Cl)c1ccccc1C#N` [Compound 2] was run?
A: 0.64 nM

Q: With `CC/C(=C(/c1ccc(OCCNC/C=C/C(=O)N(C)C)cc1)c1[nH]c2ccccc2c1Cl)c1cccc(OC)c1` [Compound 21] as the compound, how does the IC50 read?
A: 2.21 nM

Q: With `CC/C(=C(/c1ccc(OCCNC/C=C/C(=O)N(C)C)nc1)c1[nH]c2ccccc2c1Cl)c1cccc(C)c1` [Compound 18] as the compound, how does the IC50 read?
A: 2.35 nM

Q: `CC/C(=C(/c1ccc(OCCNC/C=C/C(=O)N(C)C)nc1)c1[nH]c2ccccc2c1Cl)c1ccc(Cl)cc1Cl` [Compound 15] was tested. Which IC50 did it give?
A: 1.6 nM

Q: How did the IC50 turn out when `CC/C(=C(/c1ccc(OCCNC/C=C/C(=O)N(C)C)nc1)c1cc2ccccc2[nH]1)c1ccc(F)cc1Cl` [Compound 11] was run?
A: 4.13 nM

Q: How did the IC50 turn out when `CC/C(=C(/c1ccc(OCCNC/C=C/C(=O)N2CC(CF)C2)nc1)c1[nH]c2ccccc2c1Cl)c1ccccc1` [Compound 27] was run?
A: 0.49 nM

Q: `C=CC(=O)NCCOc1ccc(/C(=C(/CC)c2ccc(F)cc2Cl)c2[nH]c3ccccc3c2Cl)cn1` [Compound 7] was tested. Which IC50 did it give?
A: 4.25 nM
